Measured values as given in article PMC10810011 (Expert opinion on drug delivery, 2023).

Experiments:
alpha2A adrenergic = biological target: T1, alpha2A adrenergic (Homo sapiens, UniProt P08913); experiment: InVEST radioligand filter binding, alpha2A adrenergic; details: M13 20 μM, 100 = no effect
T1 sequence (P08913 1-465): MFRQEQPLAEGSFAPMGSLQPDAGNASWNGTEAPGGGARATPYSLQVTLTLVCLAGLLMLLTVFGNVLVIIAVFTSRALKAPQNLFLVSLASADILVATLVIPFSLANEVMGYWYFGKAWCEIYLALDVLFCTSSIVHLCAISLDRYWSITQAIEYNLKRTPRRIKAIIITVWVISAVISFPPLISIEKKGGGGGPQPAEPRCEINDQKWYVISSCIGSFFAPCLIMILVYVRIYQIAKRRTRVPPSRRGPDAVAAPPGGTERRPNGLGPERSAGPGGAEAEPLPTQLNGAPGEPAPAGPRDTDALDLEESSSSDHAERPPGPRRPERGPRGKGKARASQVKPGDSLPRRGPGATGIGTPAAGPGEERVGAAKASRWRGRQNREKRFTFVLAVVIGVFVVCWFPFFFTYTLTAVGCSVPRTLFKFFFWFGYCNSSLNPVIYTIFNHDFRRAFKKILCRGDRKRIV

5-HT3 = biological target: T2, 5-HT3 (Homo sapiens, UniProt P46098); experiment: InVEST radioligand filter binding, ion channel 5-HT3; details: M13 20 μM, 100 = no effect
T2 sequence (P46098 24-478): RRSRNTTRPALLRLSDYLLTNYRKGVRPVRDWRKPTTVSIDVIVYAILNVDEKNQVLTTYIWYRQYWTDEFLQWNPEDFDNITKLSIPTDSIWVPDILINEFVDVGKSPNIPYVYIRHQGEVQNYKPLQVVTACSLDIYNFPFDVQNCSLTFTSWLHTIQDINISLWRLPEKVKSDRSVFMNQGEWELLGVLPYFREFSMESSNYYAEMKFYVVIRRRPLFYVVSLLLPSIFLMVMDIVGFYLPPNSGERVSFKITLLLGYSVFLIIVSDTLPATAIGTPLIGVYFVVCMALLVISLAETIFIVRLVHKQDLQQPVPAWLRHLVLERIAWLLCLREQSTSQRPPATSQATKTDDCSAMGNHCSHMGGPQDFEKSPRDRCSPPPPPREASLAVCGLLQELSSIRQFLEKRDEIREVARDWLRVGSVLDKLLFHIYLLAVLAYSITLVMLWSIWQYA

3D Caco-2/BBe cells = experiment: Cytotoxicity in 3D cultured Caco-2/BBe cells; type: cell-based, human
Caco-2/BBe cells = experiment: MTT cytotoxicity, 2D Caco-2/BBe; details: 24 h

## CCCCCC(CC(=O)CCc1ccc(O)c(OC)c1)SC[C@H](NC(=O)CC[C@H](N)C(=O)O)C(=O)NCC(=O)O (some centres unmarked) [M13, 5-glutathione-6-shogaol]
alpha2A adrenergic; repetition 1
  % Activity Data 1: 92%
alpha2A adrenergic; repetition 2
  % Activity Data 2: 100%
5-HT3; repetition 1
  % Activity Data 1: 98%
5-HT3; repetition 2
  % Activity Data 2: 100%
3D Caco-2/BBe cells; 11 days culture, regardless of the group
  sizes of 3D cell spheres: did not change significantly
3D Caco-2/BBe cells; M13 ≥ 80 μM, day 11, p < 0.05
  green fluorescence intensity of 3D cell spheres (live cells) vs NC group: significantly lower
Caco-2/BBe cells
  fold by which IC50 against HIEC-6 is higher than against Caco-2/BBe: 6 fold
Caco-2/BBe cells; Caco-2/BBe
  IC50: 16.7 µM
